This is an account of results in US20260070886A1, “QUINOLINE PIPERAZINE DERIVATIVES, PHARMACEUTICAL COMPOSITION AND USES THEREOF” (priority 2022, published 2026).

What all share (format): cell-based
The subject of one data set is A549 cells. Put plainly: Cell cytotoxicity assay, A549 cells. Particulars: Homo sapiens, 72 hours, percent cytotoxicity against DMSO control; for cytotoxicity at 1 µM: 1 μM compound, read-out: Cell toxicity A549 cells 1 μM; for cytotoxicity at 10 µM: 10 μM compound, read-out: Cell toxicity A549 cells 10 μM. The source says: (§1) The following human derived non-small cell lung cancer cell lines were used to test the efficiency of the compounds to cause cell death and assess the anti-cancer properties of said compounds: 1. A549 cells: adenocarcinomic human alveolar basal epithelial cells; these cells are used as models for the study of lung cancer and the development of drug therapies against it • 2. NCI-H-460 cells are also human lung cancer cells, and • 3. NCI-H-522 cells are also human lung cancer cells.
(§2) 500 cells/well/30 μL were seeded in a 384 well cell culture plate. Incubated over night at 37° C., 5% CO2 in cell culture incubator. 10 μL of 4× compound was added to the plates, and incubated for 72 hours at 37° C., 5% CO2 in cell culture incubator. Assay DMSO control were included for 0% cytotoxicity control. Assay was terminated by addition of 10 μL of the reagent CTG 2.0 detection reagent #G9242. Plates were incubated for 20 minute incubation at room temperature with shaking Plate were read in Envision. Ultrasensitive luminescence and data was analyzed and percent cytotoxicity of compounds was determined against DMSO control.
(§3) All the compounds, A1-A116, were tested for cell toxicity using said non-small cell lung cancer cell lines using the above described method.

Another data set deals with NCI-H-460 cells. Put plainly: Cell cytotoxicity assay, NCI-H-460 cells. Particulars: Homo sapiens, NCI-H460, 72 hours, percent cytotoxicity against DMSO control; for cytotoxicity at 1 µM: 1 μM compound, read-out: Cell toxicity NCI-H-460 cells 1 μM; for cytotoxicity at 10 µM: 10 μM compound, read-out: Cell toxicity NCI-H-460 cells 10 μM.
Source text: as §1, §2, §3

The next data set has as its system NCI-H-522 cells. Description: Cell cytotoxicity assay, NCI-H-522 cells. Particulars: Homo sapiens, NCI-H522, 72 hours, percent cytotoxicity against DMSO control; for cytotoxicity at 1 µM: 1 μM compound, read-out: Cell toxicity NCI-H-522 cells 1 μM; for cytotoxicity at 10 µM: 10 μM compound, read-out: Cell toxicity NCI-H-522 cells 10 μM.
Source text: as §1, §2, §3

Data set [1] deals with Non-small cell lung cancer cell lines. Put plainly: Cell toxicity assay, overall statement. Particulars: summary in words of Table 6.
Source text: as §1, §2, §3
These selected derivatives of Formula A were further tested to confirm their efficiency as anti-cancer compounds.

On to `COc1cc(Nc2nc(C)cc(N3CCN(c4ccnc5cc(Cl)ccc45)CC3)n2)cc(C(F)(F)F)c1` [Compound A2, 4-(4-(7-chloroquinolin-4-yl)piperazin-1-yl)-N-(3-methoxy-5-(trifluoromethyl)phenyl)-6-methylpyrimidin-2-amine], for which the cytotoxicity at 1 µM was 9% in the data set with A549 cells, -8% in the data set with NCI-H-460 cells and 4% in the data set on NCI-H-522 cells. Besides, the cytotoxicity at 10 µM was 1% in the data set on A549 cells, -3% in the data set with NCI-H-460 cells and 14% in the data set on NCI-H-522 cells. The “activity against Non-small cell lung cancer (cell toxicity)” value in data set [1] is “active”.

Turning to `COc1cccc(Nc2nc(C)cc(N3CCN(c4ccnc5cc(Cl)ccc45)CC3)n2)c1` [Compound A4, 4-(4-(7-chloroquinolin-4-yl)piperazin-1-yl)-N-(3-methoxyphenyl)-6-methylpyrimidin-2-amine], the cytotoxicity at 1 µM in the data set with A549 cells was 47%; in the data set with NCI-H-460 cells, -4%; in the data set with NCI-H-522 cells it was 14%. Further, the cytotoxicity at 10 µM in the data set on A549 cells is 95%; in the data set on NCI-H-460 cells, 71%; in the data set with NCI-H-522 cells, 57%. Besides, the “activity against Non-small cell lung cancer (cell toxicity)” value in data set [1] is given as “active”.

For the compound `COc1cc(F)cc(Nc2nc(C)cc(N3CCN(c4ccnc5cc(Cl)ccc45)CC3)n2)c1` [Compound A5, 4-(4-(7-chloroquinolin-4-yl)piperazin-1-yl)-N-(3-fluoro-5-methoxyphenyl)-6-methylpyrimidin-2-amine], the cytotoxicity at 1 µM in the data set on A549 cells is 24%; with NCI-H-460 cells, -8%; in the data set on NCI-H-522 cells, 6%. Also, the cytotoxicity at 10 µM was 5% in the data set on A549 cells, 7% in the data set on NCI-H-460 cells and 22% with NCI-H-522 cells. Also, the “activity against Non-small cell lung cancer (cell toxicity)” value in data set [1] is reported as “active”.

Consider `COc1cc(Nc2nc(N3CCN(c4ccnc5cc(Cl)ccc45)CC3)cc(C(F)(F)F)n2)cc(C(F)(F)F)c1` [Compound A6, 4-(4-(7-chloroquinolin-4-yl)piperazin-1-yl)-N-(3-methoxy-5-(trifluoromethyl)phenyl)-6-(trifluoromethyl)pyrimidin-2-amine], for which the cytotoxicity at 1 µM is 15% with A549 cells, -7% in the data set on NCI-H-460 cells and 7% in the data set on NCI-H-522 cells. The cytotoxicity at 10 µM in the data set on A549 cells is 4%; with NCI-H-460 cells, -1%; with NCI-H-522 cells, 21%. In data set [1], the “activity against Non-small cell lung cancer (cell toxicity)” value is “active”.

With `COc1cccc(Nc2nc(N3CCN(c4ccnc5cc(Cl)ccc45)CC3)cc(C(F)(F)F)n2)c1` [Compound A8, 4-(4-(7-chloroquinolin-4-yl)piperazin-1-yl)-N-(3-methoxyphenyl)-6-(trifluoromethyl)pyrimidin-2-amine], the cytotoxicity at 1 µM was 14% in the data set on A549 cells, -9% with NCI-H-460 cells and 1% in the data set on NCI-H-522 cells. Further, the cytotoxicity at 10 µM in the data set on A549 cells is 5%; in the data set on NCI-H-460 cells, -3%; in the data set on NCI-H-522 cells, 7%. Also, in data set [1], the “activity against Non-small cell lung cancer (cell toxicity)” value is recorded as “active”.

Take `Cc1cc(N2CCN(c3ccnc4cc(Cl)ccc34)CC2)nc(N2CCCC2)n1` [Compound A11, 7-chloro-4-(4-(6-methyl-2-(pyrrolidin-1-yl)pyrimidin-4-yl)piperazin-1-yl)quinoline]: the values for the cytotoxicity at 1 µM with A549 cells, with NCI-H-460 cells and in the data set on NCI-H-522 cells were 16%, -12% and 2%, respectively. Besides, the values for the cytotoxicity at 10 µM with A549 cells, in the data set with NCI-H-460 cells and in the data set with NCI-H-522 cells were 10%, -4% and 9%, respectively. In data set [1], the “activity against Non-small cell lung cancer (cell toxicity)” value was “active”.

With `Cc1cc(N2CCN(c3ccnc4cc(Cl)ccc34)CC2)nc(N2CCCCC2)n1` [Compound A12, 7-chloro-4-(4-(6-methyl-2-(piperidin-1-yl)pyrimidin-4-yl)piperazin-1-yl)quinoline], the cytotoxicity at 1 µM in the data set with A549 cells is 10%; in the data set on NCI-H-460 cells it was -9%; in the data set with NCI-H-522 cells it was 5%. The cytotoxicity at 10 µM in the data set on A549 cells, in the data set with NCI-H-460 cells and in the data set with NCI-H-522 cells was 99% in each case. Besides, the “activity against Non-small cell lung cancer (cell toxicity)” value in data set [1] is “active”.

As for `Cc1cc(N2CCN(c3ccnc4cc(Cl)ccc34)CC2)nc(N2CCCCCC2)n1` [Compound A13, 4-(4-(2-(azepan-1-yl)-6-methylpyrimidin-4-yl)piperazin-1-yl)-7-chloroquinoline], the figures for the cytotoxicity at 1 µM with A549 cells, in the data set with NCI-H-460 cells and in the data set on NCI-H-522 cells were 14%, -11% and 3%, respectively. The cytotoxicity at 10 µM in the data set on A549 cells was 88%; with NCI-H-460 cells, 47%; in the data set with NCI-H-522 cells, 48%. For the same compound, in data set [1], the “activity against Non-small cell lung cancer (cell toxicity)” value is given as “active”.

As for `Cc1cc(N2CCN(c3ccnc4cc(Cl)ccc34)CC2)nc(N2CCOCC2)n1` [Compound A16, 4-(4-(4-(7-chloroquinolin-4-yl)piperazin-1-yl)-6-methylpyrimidin-2-yl)morpholine], the cytotoxicity at 1 µM with A549 cells is 9%; in the data set on NCI-H-460 cells it was -11%; in the data set with NCI-H-522 cells, 8%. The cytotoxicity at 10 µM was -17% in the data set on A549 cells, -6% in the data set with NCI-H-460 cells and 12% in the data set on NCI-H-522 cells. Also, the “activity against Non-small cell lung cancer (cell toxicity)” value in data set [1] was “active”.

On to `FC(F)(F)c1cc(N2CCN(c3ccnc4cc(Cl)ccc34)CC2)nc(N2CCCC2)n1` [Compound A19, 7-chloro-4-(4-(2-(pyrrolidin-1-yl)-6-(trifluoromethyl)pyrimidin-4-yl)piperazin-1-yl)quinoline], for which the cytotoxicity at 1 µM with A549 cells is 25%; in the data set on NCI-H-460 cells, -8%; with NCI-H-522 cells, 11%. For the same compound, the cytotoxicity at 10 µM in the data set with A549 cells turned out to be 87%; in the data set with NCI-H-460 cells, 45%; in the data set with NCI-H-522 cells it was 48%. Further, the “activity against Non-small cell lung cancer (cell toxicity)” value in data set [1] was “active”.

Take `FC(F)(F)c1cc(N2CCN(c3ccnc4cc(Cl)ccc34)CC2)nc(N2CCCCC2)n1` [Compound A20, 7-chloro-4-(4-(2-(piperidin-1-yl)-6-(trifluoromethyl)pyrimidin-4-yl)piperazin-1-yl)quinoline]: the cytotoxicity at 1 µM in the data set on A549 cells is 37%; in the data set with NCI-H-460 cells, -10%; with NCI-H-522 cells, 8%. Also, the cytotoxicity at 10 µM was determined as 89% in the data set on A549 cells, 60% in the data set on NCI-H-460 cells and 43% in the data set on NCI-H-522 cells. Moreover, the “activity against Non-small cell lung cancer (cell toxicity)” value in data set [1] is reported as “active”.

In the case of `FC(F)(F)c1cc(N2CCN(c3ccnc4cc(Cl)ccc34)CC2)nc(N2CCCCCC2)n1` [Compound A21, 4-(4-(2-(azepan-1-yl)-6-(trifluoromethyl)pyrimidin-4-yl)piperazin-1-yl)-7-chloroquinoline], the cytotoxicity at 1 µM with A549 cells was 13%; in the data set with NCI-H-460 cells, -15%; with NCI-H-522 cells, 1%. Besides, the cytotoxicity at 10 µM with A549 cells is 23%; in the data set with NCI-H-460 cells it was -8%; in the data set on NCI-H-522 cells it was 9%. Moreover, the “activity against Non-small cell lung cancer (cell toxicity)” value in data set [1] was “active”.

As for `FC(F)(F)c1cc(N2CCN(c3ccnc4cc(Cl)ccc34)CC2)nc(N2CCNCC2)n1` [Compound A22, 7-chloro-4-(4-(2-(piperazin-1-yl)-6-(trifluoromethyl)pyrimidin-4-yl)piperazin-1-yl)quinoline], the cytotoxicity at 1 µM with A549 cells was 11%; in the data set with NCI-H-460 cells, -14%; in the data set on NCI-H-522 cells, 1%. The cytotoxicity at 10 µM in the data set with A549 cells was 17%; in the data set with NCI-H-460 cells, -2%; with NCI-H-522 cells, 11%. In data set [1], the “activity against Non-small cell lung cancer (cell toxicity)” value is recorded as “active”.

For the compound `CN1CCN(c2nc(N3CCN(c4ccnc5cc(Cl)ccc45)CC3)cc(C(F)(F)F)n2)CC1` [Compound A23, 7-chloro-4-(4-(2-(4-methylpiperazin-1-yl)-6-(trifluoromethyl)pyrimidin-4-yl)piperazin-1-yl)quinoline], the figures for the cytotoxicity at 1 µM with A549 cells, in the data set with NCI-H-460 cells and in the data set on NCI-H-522 cells were 12%, -15% and 1%, respectively. Besides, the cytotoxicity at 10 µM in the data set on A549 cells is 13%; in the data set on NCI-H-460 cells, -2%; with NCI-H-522 cells it was 9%. The “activity against Non-small cell lung cancer (cell toxicity)” value in data set [1] was “active”.
